# Data from patent US20260200920A1, “SUBSTITUTED AMINOPYRIDINE COMPOUNDS FOR USE AS AKT1 INHIBITORS” (Atavistik Bio, Inc., priority 2023, published 2026).
# How the values were obtained:
# [1] = molecular target: T1, human recombinant kinase full-length AKT1 E17K (Homo sapiens, UniProt P31749, E17K); test: AKT1 E17K kinase assay (TR-FRET, Lance); format: biochemical; details: 0.6 nM AKT1 E17K, 50 nM Ulight-CREBtide, either 50 μM ATP or 2 mM ATP, 60 min at RT
# T1 construct: Purified human recombinant kinase full-length AKT1 E17K was expressed in insect cells; made in house; host or cells: insect cells
# How it was run: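 IC50 came from a 10-point, 4-parameter fit of the 665/620 TR-FRET ratio read with Eu-anti-phospho-CREB (Ser133). Reaction at RT for 60 min after 15 min compound preincubation, using 0.6 nM PDPK1-activated full-length AKT1 E17K (insect-cell), 50 nM Ulight-CREBtide, ATP at 50 μM or 2 mM, HEPES pH 7.5, 1% DMSO.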
# [2] = molecular target: T2, human recombinant kinase full-length wildtype AKT1 (Homo sapiens, UniProt P31749); test: AKT1 kinase assay (wildtype, TR-FRET, Lance); format: biochemical; details: 0.6 nM wildtype AKT1, 50 nM Ulight-CREBtide, either 50 μM ATP or 2 mM ATP, 60 min at RT
# T2 construct: Purified human recombinant kinase full-length wildtype AKT1 was expressed in insect cells; made in house; host or cells: insect cells
# How it was run: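 TR-FRET 665/620 ratio quantified phospho-CREBtide formed by PDPK1-activated full-length human AKT1 (0.6 nM, insect-cell-derived) over 60 min at RT with 50 nM ULight-CREBtide and either 50 μM or 2 mM ATP. Compounds were preincubated 15 min with enzyme; IC50 came from 4-parameter fits of 10-point duplicates.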
# T2 sequence (P31749 whole entry): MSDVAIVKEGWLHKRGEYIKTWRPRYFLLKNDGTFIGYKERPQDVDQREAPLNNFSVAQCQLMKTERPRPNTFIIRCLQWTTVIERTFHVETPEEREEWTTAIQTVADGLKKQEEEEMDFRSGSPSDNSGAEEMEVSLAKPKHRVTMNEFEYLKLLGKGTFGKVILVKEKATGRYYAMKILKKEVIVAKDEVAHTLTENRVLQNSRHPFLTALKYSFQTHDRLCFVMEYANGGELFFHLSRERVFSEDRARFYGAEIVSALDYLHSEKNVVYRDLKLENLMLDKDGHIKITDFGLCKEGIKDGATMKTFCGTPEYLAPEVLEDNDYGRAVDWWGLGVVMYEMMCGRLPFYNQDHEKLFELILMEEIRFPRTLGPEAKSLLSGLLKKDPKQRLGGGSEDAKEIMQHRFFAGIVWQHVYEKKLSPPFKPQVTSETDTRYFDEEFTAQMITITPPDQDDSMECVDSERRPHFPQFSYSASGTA
# T1 sequence (P31749 whole entry E17K): as the sequence (P31749 whole entry) above, with E17K counted along it
SMILES,IC50 [1] [nM],IC50 [2] [nM]
Cc1cc(C2CN(C[C@H]3CC[C@@H](C(=O)O)CC3)C2)ccc1-n1c(-c2cccnc2N)nc2ccc(-c3ccccc3)nc21 [Compound I-205],500 to 2000,< 20000
CN(Cc1ccc(-n2c(-c3cccnc3N)nc3ccc(-c4ccccc4)nc32)cc1)C1CC[C@@H](C(=O)O)C1 (stereo partly shown) [Compound I-173],500 to 2000,< 20000
"Cc1nc(NC[C@H]2CC[C@H](C(=O)O)CC2)ccc1-n1c(-c2cccnc2N)nc2ccc(-c3ccccc3)nc21 [Compound I-131, (1r,4r)-4-(((5-(2-(2-aminopyridin-3-yl)-5-phenyl-3H-imidazo[4,5-b]pyridin-3-yl)-6-methylpyridin-2-yl)amino)methyl)cyclohexane-1-carboxylic acid]",500 to 2000,< 20000
"CC(C)(C(=O)O)C1CCN(C(=O)c2ccc(-n3c(-c4cccnc4N)nc4ccc(-c5ccccc5)nc43)cc2)C1 (stereo not shown) [Compound I-82, 2-(1-(4-(2-(2-aminopyridin-3-yl)-5-phenyl-3H-imidazo[4,5-b]pyridin-3-yl)benzoyl)pyrrolidin-3-yl)-2-methylpropanoic acid]",≥ 2000,< 20000
"Cc1nc(NC(=O)C2CCC(C)(C(=O)O)CC2)ccc1-n1c(-c2cccnc2N)nc2ccc(-c3ccccc3)nc21 (stereo not shown) [Compound I-128, 4-((5-(2-(2-aminopyridin-3-yl)-5-phenyl-3H-imidazo[4,5-b]pyridin-3-yl)-6-methylpyridin-2-yl)carbamoyl)-1-methylcyclohexane-1-carboxylic acid]",500 to 2000,< 20000
CC(c1ccc(-n2c(-c3cccnc3N)nc3ccc(-c4ccccc4)nc32)cc1)N(C)[C@H]1CC[C@H](C(=O)O)CC1 (stereo partly shown) [Compound I-176],500 to 2000,< 20000
Cc1cc(C2CN(CC3CC4CC(C(=O)O)CC4C3)C2)ccc1-n1c(-c2cccnc2N)nc2ccc(-c3ccccc3)nc21 (stereo not shown) [Compound I-207],500 to 2000,< 20000
"CN(Cc1ccc(-n2c(-c3cccnc3N)nc3ccc(-c4ccccc4)nc32)cc1)[C@H]1CC[C@@H](C(=O)O)CC1 [Compound I-95, (1s,4s)-4-((4-(2-(2-aminopyridin-3-yl)-5-phenyl-3H-imidazo[4,5-b]pyridin-3-yl)benzyl)(methyl)amino)cyclohexane-1-carboxylic acid]",< 500,< 20000
CC1(C)C[C@H](CN2CC(c3ccc(-n4c(-c5cccnc5N)nc5ccc(-c6ccccc6)nc54)cc3)C2)CC(C)(C)[C@@H]1C(=O)O [Compound I-148],< 500,< 20000
Nc1ncccc1-c1nc2ccc(-c3ccccc3)nc2n1-c1ccc(NC(=O)[C@H]2CC[C@H](C(=O)O)CC2)cc1 [Compound I-2],< 500,< 20000
"Nc1ncccc1-c1nc2ccc(-c3ccccc3)nc2n1-c1ccc(CN(CC(F)(F)F)[C@H]2CC[C@H](C(=O)O)CC2)cc1 (single isomer, unassigned) [Compound I-188, (1r,4r)-4-((4-(2-(2-aminopyridin-3-yl)-5-phenyl-3H-imidazo[4,5-b]pyridin-3-yl)benzyl)(2,2,2-trifluoroethyl)amino)cyclohexane-1-carboxylic acid]",≥ 2000,< 20000
"Nc1ncccc1-c1nc2ccc(N3CCOCC3)cc2n1-c1ccc(NC(=O)[C@H]2CC[C@H](C(=O)O)CC2)cc1 [Compound I-33, (1r,4r)-4-((4-(2-(2-aminopyridin-3-yl)-6-morpholino-1H-benzo[d]imidazol-1-yl)phenyl)carbamoyl)cyclohexane-1-carboxylic acid]",≥ 2000,< 20000
"NC(=O)N1CCC(C(=O)Nc2ccc(-n3c(-c4cccnc4N)nc4ccc(-c5ccccc5)nc43)cn2)CC1 [Compound I-122, N^4-(5-(2-(2-aminopyridin-3-yl)-5-phenyl-31-imidazo[4,5-b]pyridin-3-yl)pyridin-2-yl)piperidine-1,4-dicarboxamide]",< 500,< 20000
"CC(C)(C(=O)O)C1CCN(Cc2ccc(-n3c(-c4cccnc4N)nc4ccc(-c5ccccc5)nc43)cc2)CC1 [Compound I-92, 2-(1-(4-(2-(2-aminopyridin-3-yl)-5-phenyl-3H-imidazo[4,5-b]pyridin-3-yl)benzyl)piperidin-4-yl)-2-methylpropanoic acid]",≥ 2000,< 20000
"Nc1ncccc1-c1nc2cc(-c3ccc(F)cc3)cnc2n1-c1ccc(C2CN(C[C@H]3CC[C@H](C(=O)O)CC3)C2)cc1 [Compound I-67, (1r,4r)-4-((3-(4-(2-(2-aminopyridin-3-yl)-6-(4-fluorophenyl)-3H-imidazo[4,5-b]pyridin-3-yl)phenyl)azetidin-1-yl)methyl)cyclohexane-1-carboxylic acid]",≥ 2000,< 20000
CN(Cc1ccc(-n2c(-c3cccnc3N)nc3ccc(-c4ccccc4)nc32)cc1)[C@@H]1CC[C@@H](C(=O)O)C1 [Compound I-170],< 500,< 20000
"Nc1ncccc1-c1nc2ccc(-c3ccccc3)nc2n1-c1ccc(C2CCCN(CC3CCC(C(=O)O)CC3)C2)cc1 (stereo not shown) [Compound I-77, 4-((3-(4-(2-(2-aminopyridin-3-yl)-5-phenyl-3H-imidazo[4,5-b]pyridin-3-yl)phenyl)piperidin-1-yl)methyl)cyclohexane-1-carboxylic acid]",≥ 2000,< 20000
"C[C@H]([C@H]1CC[C@H](C(=O)O)CC1)N1CC(c2ccc(-n3c(-c4cccnc4N)nc4ccc(-c5ccccc5)nc43)cc2)C1 [Compound I-59, (1R,4r)-4-((R)-1-(3-(4-(2-(2-aminopyridin-3-yl)-5-phenyl-3H-imidazo[4,5-b]pyridin-3-yl)phenyl)azetidin-1-yl)ethyl)cyclohexane-1-carboxylic acid]",< 500,< 20000
CN(CCc1ccc(-n2c(-c3cccnc3N)nc3ccc(-c4ccccc4)nc32)cc1)[C@H]1CC[C@H](C(=O)O)CC1 [Compound I-158],500 to 2000,< 20000
"Nc1ncccc1-c1nc2ccc(-c3ccccc3)nc2n1-c1ccc(NC(=O)N2CCC(C(=O)O)CC2)c(F)c1 [Compound I-106, 1-[[4-[2-(2-amino-3-pyridyl)-5-phenyl-imidazo[4,5-b]pyridin-3-yl]-2-fluoro-phenyl]carbamoyl]piperidine-4-carboxylic acid]",500 to 2000,< 20000
CC(c1ccc(-n2c(-c3cccnc3N)nc3ccc(-c4ccccc4)nc32)cc1)N(C)[C@H]1CC[C@@H](C(=O)O)CC1 (stereo partly shown) [Compound I-177],500 to 2000,< 20000
"Nc1ncccc1-c1nc2ccc(-c3ccccc3)nc2n1-c1ccc(CNC(=O)C2CC(=O)CC(=O)C2)cc1 [Compound I-38, N-(4-(2-(2-aminopyridin-3-yl)-5-phenyl-3H-imidazo[4,5-b]pyridin-3-yl)benzyl)-3,5-dioxocyclohexane-1-carboxamide]",< 500,< 20000
"Nc1ncccc1-c1nc2ccc(-c3ccccc3)nc2n1-c1ccc(N2CCC(C(=O)O)CC2)nc1 [Compound I-27, 1-(5-(2-(2-aminopyridin-3-yl)-5-phenyl-3H-imidazo[4,5-b]pyridin-3-yl)pyridin-2-yl)piperidine-4-carboxylic acid]",500 to 2000,< 20000
